Results published in patent US9593149B2, “Amylin and calcitonin receptor agonist” (Novo Nordisk A/S, priority 2014, dated 2017).
≈ marks a conversion by molar mass, not a printed value. Numbered stars: 1 amine (or outer) side, 2 acyl side, 3 side chain; on linkers, the order of the positions; unused ones are H or OH. Peptide text beside a SMILES is read from it. * marks the point of attachment. C20 diacid = O=C(O)CCCCCCCCCCCCCCCCCCC(=O)*; C18 diacid = O=C(O)CCCCCCCCCCCCCCCCC(=O)*; γGlu = O=C(O)[C@H](CCC(=O)[*:2])N[*:1]

Test: Assay (IV) determination of solubility
Type: physicochemical
Procedure: Assay (IV)—Determination of Solubility
The mimylin peptide was dissolved in water at ˜500 nmol/ml and mixed 1:1 with a series of buffers (100 mM glycylglycine pH 3.0, 100 mM glycylglycine pH 4.0, 100 mM glycylglycine pH 5.0, 100 mM bistrispropane pH 6.0, 100 mM bistrispropane pH 6.5, 100 mM bistrispropane pH 7.0, 100 mM bistrispropane pH 7.5, 100 mM bistrispropane pH 8.0).

Row | Solubility (pH 3.0) | Solubility (pH 4.0) | Solubility (pH 5.0) | Solubility (pH 6.0) | Solubility (pH 6.5) | Solubility (pH 7.0) | Solubility (pH 7.5) | Solubility (pH 8.0) | solubility at 18 h (pH 4.0) [µM] | solubility at 18 h (pH 5.0) [µM] | solubility at 18 h (pH 6.0) [µM] | solubility at 18 h (pH 6.5) [µM] | solubility at 18 h (pH 7.0) [µM] | solubility at 18 h (pH 7.5) [µM] | solubility at 18 h (pH 8.0) [µM] | SMILES
1 | ≧200 μM | ≧200 μM | ≧200 μM | ≧200 μM | ≧200 μM | ≧200 μM | ≧200 μM | ≧200 μM | – | – | – | – | – | – | – | CC[C@H](C)[C@H](NC(=O)[C@H](CCC(=O)O)NC(=O)[C@H](C)NC(=O)[C@H](CO)NC(=O)[C@H](CC(C)C)NC(=O)[C@H](CCCNC(=N)N)NC(=O)CNC(=O)[C@H](CC(C)C)NC(=O)[C@H](C)NC(=O)[C@H](C)NC(=O)[C@@H](NC(=O)[C@H](CO)NC(=O)[C@H](CC(C)C)NC(=O)[C@H](CCC(=O)O)NC(=O)[C@H](CO)NC(=O)[C@H](C)NC(=O)[C@H](CCC(=O)O)NC(=O)CCCCCCCCCCCCCCCCC(=O)O)[C@@H](C)O)C(=O)N[C@@H](Cc1cnc[nH]1)C(=O)N[C@@H](CCC(=O)O)C(=O)N[C@@H](CC(C)C)C(=O)N[C@@H](C)C(=O)N[C@H](C(=O)N[C@@H](CC(C)C)C(=O)N1CCC[C@H]1C(=O)N[C@@H](CCCNC(=N)N)C(=O)N[C@H](C(=O)N[C@@H](CCC(=O)O)C(=O)N[C@H](C(=O)NCC(=O)N1CCC[C@H]1C(=O)N[C@@H](CCC(=O)O)C(=O)N[C@@H](CO)C(=O)N1CCC[C@H]1C(N)=O)[C@@H](C)O)[C@@H](C)O)[C@@H](C)O [compound 11, [N-terminal(C18 diacid), 17I]mimylin] ({C18 diacid}-EASELSTAALGRLSAEIHELATLPRTETGPESP-NH2)
2 | ≧200 μM | – | – | – | – | – | – | – | 2 (≈ 7.75 µg/mL) | 8 (≈ 31 µg/mL) | 17 (≈ 65.9 µg/mL) | 5 (≈ 19.4 µg/mL) | 26 (≈ 101 µg/mL) | 90 (≈ 349 µg/mL) | 173 (≈ 671 µg/mL) | CC(C)C[C@H](NC(=O)CNC(=O)[C@H](CO)NC(=O)[C@H](C)NC(=O)CC[C@H](NC(=O)CCCCCCCCCCCCCCCCCCC(=O)O)C(=O)O)C(=O)N[C@@H](CO)C(=O)N[C@H](C(=O)N[C@@H](C)C(=O)N[C@H](C(=O)N[C@@H](CC(C)C)C(=O)NCC(=O)N[C@@H](CCCNC(=N)N)C(=O)N[C@@H](CC(C)C)C(=O)N[C@@H](CO)C(=O)N[C@@H](CCC(N)=O)C(=O)N[C@@H](CCC(=O)O)C(=O)N[C@@H](CC(C)C)C(=O)N[C@@H](Cc1cnc[nH]1)C(=O)N[C@@H](CCC(=O)O)C(=O)N[C@@H](CC(C)C)C(=O)N[C@@H](CCC(N)=O)C(=O)N[C@H](C(=O)N[C@@H](Cc1ccc(O)cc1)C(=O)N1CCC[C@H]1C(=O)N[C@@H](CCCNC(=N)N)C(=O)N[C@H](C(=O)N[C@@H](CCC(=O)O)C(=O)N[C@H](C(=O)NCC(=O)N[C@@H](CO)C(=O)NCC(=O)N[C@H](C(=O)N[C@@H](Cc1ccc(O)cc1)C(N)=O)[C@@H](C)O)[C@@H](C)O)[C@@H](C)O)[C@@H](C)O)C(C)C)[C@@H](C)O [compound 118, [N-terminal(C20 diacid-gGlu), des1, 4G, 9V, 15Q, 21Q, 23Y, 30S, 31G, 32T, 33Y]mimylin]
3 | ≧200 μM | ≧200 μM | ≧200 μM | ≧200 μM | ≧200 μM | ≧200 μM | ≧200 μM | ≧200 μM | – | – | – | – | – | – | – | CC(C)C[C@H](NC(=O)[C@H](C)NC(=O)[C@H](C)NC(=O)[C@@H](NC(=O)[C@H](CO)NC(=O)[C@H](CC(C)C)NC(=O)[C@H](CCC(=O)O)NC(=O)[C@H](CO)NC(=O)[C@H](C)NC(=O)[C@H](CCC(=O)O)NC(=O)CCCCCCCCCCCCCCCCC(=O)O)[C@@H](C)O)C(=O)NCC(=O)N[C@@H](CCCNC(=N)N)C(=O)N[C@@H](CC(C)C)C(=O)N[C@@H](CO)C(=O)N[C@@H](C)C(=O)N[C@@H](CCC(=O)O)C(=O)N[C@@H](CC(C)C)C(=O)N[C@@H](Cc1cnc[nH]1)C(=O)N[C@@H](CCC(=O)O)C(=O)N[C@@H](CC(C)C)C(=O)N[C@@H](C)C(=O)N[C@H](C(=O)N[C@@H](CC(C)C)C(=O)N1CCC[C@H]1C(=O)N[C@@H](CCCNC(=N)N)C(=O)N[C@H](C(=O)N[C@@H](CCC(=O)O)C(=O)N[C@H](C(=O)NCC(=O)N1CCC[C@H]1C(=O)N[C@@H](CCC(=O)O)C(=O)N[C@@H](Cc1cnc[nH]1)C(=O)N1CCC[C@H]1C(N)=O)[C@@H](C)O)[C@@H](C)O)[C@@H](C)O [compound 18, [N-terminal(C18 diacid), 32H]mimylin] ({C18 diacid}-EASELSTAALGRLSAELHELATLPRTETGPEHP-NH2)
4 | ≧200 μM | ≧200 μM | – | ≧200 μM | ≧200 μM | ≧200 μM | ≧200 μM | ≧200 μM | – | 156 (≈ 620 µg/mL) | – | – | – | – | – | CC(C)C[C@H](NC(=O)CNC(=O)[C@H](CO)NC(=O)[C@H](C)NC(=O)[C@H](CCC(=O)O)NC(=O)CC[C@H](NC(=O)CCCCCCCCCCCCCCCCCCC(=O)O)C(=O)O)C(=O)N[C@@H](CO)C(=O)N[C@H](C(=O)N[C@@H](C)C(=O)N[C@@H](C)C(=O)N[C@@H](CC(C)C)C(=O)NCC(=O)N[C@@H](CCCNC(=N)N)C(=O)N[C@@H](CC(C)C)C(=O)N[C@@H](CO)C(=O)N[C@@H](CCC(N)=O)C(=O)N[C@@H](CCC(=O)O)C(=O)N[C@@H](CC(C)C)C(=O)N[C@@H](Cc1cnc[nH]1)C(=O)N[C@@H](CCC(=O)O)C(=O)N[C@@H](CC(C)C)C(=O)N[C@@H](CCC(N)=O)C(=O)N[C@H](C(=O)N[C@@H](Cc1ccc(O)cc1)C(=O)N1CCC[C@H]1C(=O)N[C@@H](CCCNC(=N)N)C(=O)N[C@H](C(=O)N[C@@H](CCC(=O)O)C(=O)N[C@H](C(=O)NCC(=O)N[C@@H](CO)C(=O)NCC(=O)N[C@H](C(=O)N[C@@H](Cc1ccc(O)cc1)C(N)=O)[C@@H](C)O)[C@@H](C)O)[C@@H](C)O)[C@@H](C)O)[C@@H](C)O [compound 103, [N-terminal(C20 diacid-gGlu), 4G, 15Q, 21Q, 23Y, 30S, 31G, 32T, 33Y]mimylin] ({C20 diacid-γGlu}-EASGLSTAALGRLSQELHELQTYPRTETGSGTY-NH2)
5 | ≧200 μM | – | – | ≧200 μM | ≧200 μM | ≧200 μM | ≧200 μM | ≧200 μM | 132 (≈ 505 µg/mL) | 22 (≈ 84.1 µg/mL) | – | – | – | – | – | CC(C)C[C@H](NC(=O)CNC(=O)[C@H](CO)NC(=O)[C@H](C)NC(=O)CC[C@H](NC(=O)CCCCCCCCCCCCCCCCCCC(=O)O)C(=O)O)C(=O)N[C@@H](CO)C(=O)N[C@H](C(=O)N[C@@H](C)C(=O)N[C@@H](C)C(=O)N[C@@H](CC(C)C)C(=O)NCC(=O)N[C@@H](CCCNC(=N)N)C(=O)N[C@@H](CC(C)C)C(=O)N[C@@H](CO)C(=O)N[C@H](C(=O)N[C@@H](CCC(=O)O)C(=O)N[C@@H](CC(C)C)C(=O)N[C@@H](Cc1cnc[nH]1)C(=O)N[C@@H](CCC(=O)O)C(=O)N[C@@H](CC(C)C)C(=O)N[C@@H](CCC(=O)O)C(=O)N[C@H](C(=O)N[C@@H](Cc1ccc(O)cc1)C(=O)N1CCC[C@H]1C(=O)N[C@@H](CCCNC(=N)N)C(=O)N[C@H](C(=O)N[C@@H](CCC(=O)O)C(=O)N[C@H](C(=O)NCC(=O)N[C@@H](CO)C(=O)NCC(=O)N[C@H](C(=O)N[C@@H](Cc1ccc(O)cc1)C(N)=O)[C@@H](C)O)[C@@H](C)O)[C@@H](C)O)[C@@H](C)O)[C@@H](C)O)[C@@H](C)O [compound 112, [N-terminal(C20 diacid-gGlu), des1, 4G, 15T, 21E, 23Y, 30S, 31G, 32T, 33Y]mimylin] ({C20 diacid-γGlu}-ASGLSTAALGRLSTELHELETYPRTETGSGTY-NH2)
6 | ≧200 μM | ≧200 μM | – | ≧200 μM | ≧200 μM | ≧200 μM | ≧200 μM | ≧200 μM | – | 101 (≈ 376 µg/mL) | – | – | – | – | – | CC(C)C[C@H](NC(=O)[C@H](C)NC(=O)[C@H](C)NC(=O)[C@@H](NC(=O)[C@H](CO)NC(=O)[C@H](CC(C)C)NC(=O)[C@H](CCC(=O)O)NC(=O)[C@H](CO)NC(=O)[C@H](C)NC(=O)CC[C@H](NC(=O)CCCCCCCCCCCCCCCCCCC(=O)O)C(=O)O)[C@@H](C)O)C(=O)NCC(=O)N[C@@H](CCCNC(=N)N)C(=O)N[C@@H](CC(C)C)C(=O)N[C@@H](CO)C(=O)N[C@@H](C)C(=O)N[C@@H](CCC(=O)O)C(=O)N[C@@H](CC(C)C)C(=O)N[C@@H](Cc1cnc[nH]1)C(=O)N[C@@H](CCC(=O)O)C(=O)N[C@@H](CC(C)C)C(=O)N[C@@H](C)C(=O)N[C@H](C(=O)N[C@@H](CC(C)C)C(=O)N1CCC[C@H]1C(=O)N[C@@H](CCCNC(=N)N)C(=O)N[C@H](C(=O)N[C@@H](CCC(=O)O)C(=O)N[C@H](C(=O)NCC(=O)N[C@@H](CO)C(=O)NCC(=O)N[C@@H](CO)C(=O)N[C@@H](Cc1ccccc1)C(N)=O)[C@@H](C)O)[C@@H](C)O)[C@@H](C)O [compound 61, [N-terminal(C20 diacid-gGlu), des1, 30S, 31G, 33F]mimylin] ({C20 diacid-γGlu}-ASELSTAALGRLSAELHELATLPRTETGSGSF-NH2)
